Source: patent US20060128729A1, “Novel bicyclic heterocyclic compounds, process for their preparation and compositions containing them” (priority 2004, published 2006)
Counter-ions that a name gives are not always drawn. Like-named read-outs stand apart in the source and are kept apart here.

What was measured:
[1] = tested on: VCAM-1 (vascular cell adhesion molecule-1); experiment: VCAM-1 ELISA on cell layers of stimulated human aortic endothelial cells; assay type: cell-based; conditions: HAECs treated with TNFα (0.05 ng/ml) or glycated human serum albumin (300 μg/ml) for 18-24 h, read-out: IC50 in VCAM-1 enzyme-linked immunosorbent assay
Procedure: (§1) For inflammation assays, human aortic endothelial cells (HAECS) in 96 well plates were washed once with treatment medium (basal medium containing 1% FBS). Cells were treated with an inflammatory agent such as TNFα (0.05 ng/ml) or glycated human serum albumin (US Biologicals) as source of advanced glycation end products (AGEs) (300 μg/ml) for 18-24 h in the presence or absence of specified amount of compound. Cell supernatants were collected and used for the estimation of MCP-1 (monocyte chemoattractant protein 1) or IL-6 (interleukin-6) by ELISA. Cell layers were washed and used for determining the levels of vascular cell adhesion molecule-1 (VCAM-1).
The cells were fixed cells with 100% methanol for 10 min at room temperature. The methanol was removed and the plate was air-dried. 100 ul of 1:1000 diluted primary antibody (polyclonal goat anti-human VCAM-1—R&D Systems #BBA19) was then added and incubated for 2 h at 37 C. The cells were washed with PBS and 100 ul of 1:5000 dilution of secondary antibody (rabbit anti-goat IgG-HRP—Zymed #81-1620) was added and incubated for 1 h at room temperature. Cells were washed and 100 ul of substrate solution (R&D Systems# DY999) was added and incubated for 20 min in the dark at room temp. 50 μl of stop solution (2N sulfuric acid) was added to the wells and absorbency at 450 nm was noted.

[2] = tested on: human aortic smooth muscle cells; experiment: Smooth muscle cell proliferation assay (radiolabeled thymidine incorporation or CellTiter AQ); assay type: cell-based; conditions: human aortic SMC; for IC50: 24 h post treatment in serum-containing growth medium, read-out: Activity: concentration giving 50% inhibition of smooth muscle cell proliferation; for inhibition at 1 µM: 24 h post treatment
Procedure: Primary cultures of human aortic smooth muscle cells were obtained from Clonetics. SMC were initially grown in T-75 flasks prior to seeding in 96 well plates. The 96-well plates were seeded with 4000 cells/well. The following day cells were washed with serum free medium and left in serum free media for 24 hours for serum starvation. The next day cells received growth medium containing serum with or without compound. 24 h post treatment cell proliferation was assayed either assessing the incorporation of radiolabeled thymidine to DNA or using a non-radioactive cell proliferation kit from Promega (CellTiter AQ).

[3] = tested on: MCP-1 (monocyte chemoattractant protein 1); experiment: MCP-1 ELISA on supernatants of stimulated human aortic endothelial cells; assay type: cell-based; conditions: HAECs treated with TNFα (0.05 ng/ml) or glycated human serum albumin (300 μg/ml) for 18-24 h, read-out: IC50 in MCP-1 enzyme-linked immunosorbent assay
Procedure: as §1
MCP-1 ELISA was carried out using Quantikine Human MCP-1 kit as described by the manufacturer (R&D Systems, Inc.). Mouse anti-human MCP-1 was used as the capture antibody and HRP (horse radish peroxidase)-conjugated goat anti-human MCP-1 antibody was used as detection antibody. Culture medium was incubated with the capture antibody (in 96-well plate) for 2 h at room temperature. Wells were washed three times with wash buffer (0.05% Tween-20 in PBS) followed by incubation with detection antibody for 2 h at room temperature. Color development was read at […] in a microplate reader.

| Compound | IC50 ([3]; Homo sapiens, Endothelial cell) [nM] | melting point [°C] | IC50 [2] [nM] | also measured |
| --- | --- | --- | --- | --- |
| Cc1nn(C)c2c(Nc3ccc(S(N)(=O)=O)cc3)nc(-c3ccccc3)nc12 [E 44, 4-(1,3-dimethyl-5-phenyl-1H-pyrazolo[4,3-d]pyrimidin-7-ylamino)-benzenesulfonamide hydrochloride] | – | – | 2500 | – |
| COc1ccc(Nc2nc(-c3cccs3)nc3c(C)nn(C)c23)cc1Cl.Cl [E 32, (3-chloro-4-methoxy-phenyl)-(1,3-dimethyl-5-thiophen-2-yl-1H-pyrazolo[4,3-d]pyrimidin-7-yl)-amine hydrochloride] | – | > 240 | 940 | – |
| Cc1nn(C)c2c(Nc3ccc4c(c3)OCO4)nc(-c3cccs3)nc12 [E 33, benzo[1,3]dioxol-5-yl-(1,3-dimethyl-5-thiophen-2-yl-1H-pyrazolo[4,3-d]pyrimidin-7-yl)-amine hydrochloride] | – | – | 540 | – |
| CCCc1nn(C)c2c(Nc3ccc(OC)c(F)c3)nc(-c3ccc(F)cc3)nc12 [E 86, (3-fluoro-4-methoxy-phenyl)-[5-(4-fluoro-phenyl)-1-methyl-3-propyl-1H-pyrazolo[4,3-d]pyrimidin-7-yl]-amine] | – | – | – | IC50 [1]: 12700 nM; IC50 [3]: 9000 nM |
| CCCc1nn(C)c2c(Nc3ccc(OC(F)(F)F)cc3)nc(-c3ccc(F)cc3)nc12.Cl [E 37, [5-(4-fluoro-phenyl)-1-methyl-3-propyl-1H-pyrazolo[4,3-d]pyrimidin-7-yl]-(4-trifluoromethoxy-phenyl)-amine hydrochloride] | – | 230 to 232 | 500 | – |
| COc1ccc(Nc2nc(-c3ccc(F)cc3)nc3c(C)nn(C)c23)cc1F.Cl [E 16, (3-fluoro-4-methoxy-phenyl)-[5-(4-fluoro-phenyl)-1,3-dimethyl-1H-pyrazolo[4,3-d]pyrimidin-7-yl]-amine hydrochloride] | – | 262 | – | inhibition at 1 µM [2]: 100% |
| COc1ccc(Nc2nc(-c3ccccc3)nc3c(C)nn(C)c23)cc1Cl [E 13, (3-chloro-4-methoxy-phenyl)-(1,3-dimethyl-5-phenyl-1H-pyrazolo[4,3-d]pyrimidin-7-yl)-amine hydrochloride] | 1500 | – | 380 | – |
| COc1ccc(Nc2nc(-c3ccccc3)nc3c(C)nn(C)c23)cc1F [E 14, (1,3-dimethyl-5-phenyl-1H-pyrazolo[4,3-d]pyrimidin-7-yl)-(3-fluoro-4-methoxy-phenyl)-amine hydrochloride] | 4000 | – | 430 | – |
| COc1ccc(Nc2nc(-c3ccc(F)cc3)nc3c(C)nn(C)c23)cc1Cl.Cl [E 17, (3-chloro-4-methoxy-phenyl)-[5-(4-fluoro-phenyl)-1,3-dimethyl-1H-pyrazolo[4,3-d]pyrimidin-7-yl]-amine hydrochloride] | – | > 240 | – | inhibition at 1 µM [2]: 100% |
| Cc1nn(C)c2c(Nc3ccc(OC(F)(F)F)cc3)nc(-c3ccccc3)nc12.Cl [E 38, (1,3-dimethyl-5-phenyl-1H-pyrazolo[4,3-d]pyrimidin-7-yl)-(4-trifluoromethoxy-phenyl)-amine hydrochloride] | – | 174 to 176 | 230 | – |
| Cc1nn(C)c2c(Nc3ccc4c(c3)OCO4)nc(-c3ccc(F)cc3)nc12.Cl [E 19, benzo[1,3]dioxol-5-yl-[5-(4-fluoro-phenyl)-1,3-dimethyl-1H-pyrazolo[4,3-d]pyrimidin-7-yl]-amine hydrochloride] | – | 230 to 232 | 450 | – |
| Cc1nn(C)c2c(Nc3ccc(C(F)(F)F)cc3)nc(-c3ccc(F)cc3)nc12.Cl [E 39, [5-(4-fluoro-phenyl)-1,3-dimethyl-1H-pyrazolo[4,3-d]pyrimidin-7-yl]-(4-trifluoromethyl-phenyl)-amine hydrochloride] | – | 250 to 252 | 330 | – |
| COc1ccc(Nc2nc(-c3cccs3)nc3c(C)nn(C)c23)cc1F.Cl [E 30, (1,3-dimethyl-5-thiophen-2-yl-1H-pyrazolo[4,3-d]pyrimidin-7-yl)-(3-fluoro-4-methoxy-phenyl)-amine hydrochloride] | – | 236 to 238 | 1450 | – |
| CCCc1nn(C)c2c(N3CCC(O)CC3)nc(-c3ccc(OC)c(OC)c3)nc12 [E 20, 1-[5-(3,4-dimethoxy-phenyl)-1-methyl-3-propyl-1H-pyrazolo[4,3-d]pyrimidin-7-yl]-piperidin-4-ol] | – | 142 to 144 | – | – |

The next lines start with results.

| IC50 ([3]; Homo sapiens, Endothelial cell) [nM] | melting point [°C] | Compound | IC50 [2] [nM] | also measured |
| --- | --- | --- | --- | --- |
| 5400 | – | COc1ccc(Nc2nc(-c3ccc(F)cc3)nc3c2cnn3-c2ccccc2)cc1F [E 80, (3-fluoro-4-methoxy phenyl)-[6-(4-fluoro-phenyl)-1-phenyl-1H-pyrazolo[3,4-d]-pyrimidin-4yl]amine hydrochloride] | 460 | IC50 ([1]; Homo sapiens, Endothelial cell): 11100 nM |
| 8700 | – | CCCc1nn(C)c2c(Nc3ccc4c(c3)OCO4)nc(-c3cccs3)nc12 [E 52, benzo[1,3]dioxol-5-yl-(1-methyl-3-propyl-5-thiophen-2-yl-1H-pyrazolo[4,3-d]pyrimidin-7-yl)-amine hydrochloride] | 500 | IC50 ([1]; Homo sapiens, Endothelial cell): 10900 nM |
| 480 | – | Cc1nn(C)c2cc(-c3ccc(F)cc3)nc(Nc3ccc(S(C)(=O)=O)cc3)c12 [E 100, [6-(4-fluoro-phenyl)-1,3-dimethyl-1H-pyrazolo[4,3-c]pyridin-4-yl]-(4-methanesulfonyl-phenyl)-amine] | – | – |
| 420 | 272 to 274 | CNC(=O)c1cccc(Nc2nc(-c3ccc(F)cc3)nc3c(C)nn(C)c23)c1.Cl [E 50, 3-[5-(4-fluoro-phenyl)-1,3-dimethyl-1H-pyrazolo[4,3-d]pyrimidin-7-ylamino]-N-methyl-benzamide hydrochloride] | – | IC50 ([1]; Homo sapiens, Endothelial cell): 1680 nM |
| – | 254 to 256 | Cc1nn(C)c2c(Nc3ccc(S(=O)(=O)N(C)C)cc3)nc(-c3ccc(F)cc3)nc12.Cl [E 43, 4-[5-(4-fluoro-phenyl)-1,3-dimethyl-1H-pyrazolo[4,3-d]pyrimidin-7-ylamino]-N,N-dimethyl-benzenesulfonamide hydrochloride] | 930 | – |
| 3800 | – | COc1ccc(Nc2nc(-c3ccc(F)cc3)cc3c2c(C)nn3C)cc1Cl [E 72, (3-chloro-4-methoxy-phenyl)-[6-(4-fluoro-phenyl)-1,3-dimethyl-1H-pyrazolo[4,3-c]pyridin-4-yl]-amine hydrochloride] | 1300 | IC50 ([1]; Homo sapiens, Endothelial cell): 14000 nM |
| 340 | 258 to 260 | Cc1nn(C)c2c(Nc3cccc(C(N)=O)c3)nc(-c3ccc(F)cc3)nc12.Cl [E 49, 3-[5-(4-fluoro-phenyl)-1,3-dimethyl-1H-pyrazolo[4,3-d]pyrimidin-7-ylamino]-benzamide hydrochloride] | – | IC50 ([1]; Homo sapiens, Endothelial cell): 610 nM |
| – | 216 to 218 | Cc1nn(C)c2c(Nc3ccc(S(C)(=O)=O)cc3)nc(-c3ccc(F)cc3)nc12 [E 96, [5-(4-fluoro-phenyl)-1,3-dimethyl-1H-pyrazolo[4,3-d]pyrimidin-7-yl]-(4-methanesulfonyl-phenyl)-amine] | 1370 | – |
| 4100 | – | COc1ccc(Nc2nc(-c3ccc(F)cc3)cc3c2c(C)nn3C)cc1F [E 73, (3-fluoro-4-methoxy-phenyl)-[6-(4-fluoro-phenyl)-1,3-dimethyl-1H-pyrazolo[4,3-c]pyridin-4-yl]-amine hydrochloride] | 900 | IC50 ([1]; Homo sapiens, Endothelial cell): 13700 nM |
